Series [1] deals with Mtb. As to the kind of experiment: Fractional killing and potentiation of antimicrobials. It counts as cell-based, Mycobacterium tuberculosis. The conditions noted are these: pH 5.7, 3 days; for reduction in bacterial growth relative to the initial inoculum, compound alone: 10 μM AC2P36 alone or 10 μM INH alone.
Another series deals with Mtb free thiol pools. The experiment in a line: Free thiol pools in Mtb. The class given is cell-based. The conditions noted are these: for free thiol pools relative to DMSO/untreated control: pH 7.0 and 5.7, 24 hours, 2 or 20 μM AC2P36, 20 μM auranofin, INH.
Another series relates to Proteus vulgaris. The class given is cell-based. The conditions noted are these: neutral and acidic pH.
A further series concerns S. aureus free thiols. As to the kind of experiment: Free thiols in S. aureus. The class given is cell-based, Staphylococcus aureus strain Newman. The conditions noted are these: 20 μM, pH 5.7.
The next series has as its system S. aureus (ΔsodAΔsodM). The class given is cell-based. The conditions noted are these: pH 7.0 and 5.7.
In series [2] the test system is Mtb reporter strain CDC1551::roGFP-R12. It counts as cell-based, Mycobacterium tuberculosis. The conditions noted are these: pH 7.0 and 5.7, 0.1 – 20 μM, 6 h.
Series [3] relates to Mtb. As to the kind of experiment: Bactericidal activity of AC2P36. The class given is cell-based, Mycobacterium tuberculosis strain CDC1551.
A further series deals with Pseudomonas auruginosa. The class given is cell-based. The conditions noted are these: neutral and acidic pH.
Series [4] concerns Mtb. It counts as cell-based.
The next series is described as follows: in vitro. It counts as cell-based. The conditions noted are these: mouse.
The test system of a further series is Enterococcus faecalis. The class given is cell-based. The conditions noted are these: neutral and acidic pH.
The next series concerns Staphylococcus aureus. The class given is cell-based. The conditions noted are these: neutral and acidic pH.
The test system of another series is S. aureus. It counts as cell-based. The conditions noted are these: 10 – 80 μM, pH 7.0 and 5.7, 6 hours.
Series [5] relates to Mtb. As to the kind of experiment: Intracellular reactive oxygen species. The class given is cell-based, Mycobacterium tuberculosis.
Series [6] relates to Mtb. The experiment in a line: Menadione sensitivity assay. The conditions noted are these: pH 5.7, dose response of AC2P36 and menadione, six days, OD. It counts as cell-based, Mycobacterium tuberculosis.
For a further series, the system named is Escherichia coli. It counts as cell-based. The conditions noted are these: neutral and acidic pH.
The test system of a further series is Mtb cytoplasmic pH. The experiment in a line: Cytoplasmic pH measurement. The conditions noted are these: pH 5.7, over 24 hours. The class given is cell-based.
For series [7], the system named is Mtb. The experiment in a line: Protection from AC2P36 by ROS scavenging agents. The class given is cell-based, Mycobacterium tuberculosis. The conditions noted are these: pH 5.7, dose response of scavenger, six days, OD.

Molecules are shown by their SMILES. Entries after “also recorded” stand apart in the source; their conditions may differ. Where only a bound is given, the exact number is not on record here.

In the case of `CC(C)/N=c1\cc2n(-c3ccc(Cl)cc3)c3ccccc3nc-2cc1Nc1ccc(Cl)cc1` [Clofazimine, clofazimine, reference compound], the “effect on Mtb growth, compound alone” value with Mtb [1] (100 μM clofazimine alone) was “did not impact Mtb growth”.
Consider `NNC(=O)c1ccncc1` [INH, isoniazid, reference compound], for which the “free thiol pools relative to DMSO/untreated control” value with Mtb free thiol pools is recorded as “comparable thiol concentrations as the untreated cultures”. For the same compound, the “reduction in bacterial growth relative to the initial inoculum, compound alone” value with Mtb [1] is listed as “approximately 2 fold”.
On to `COc1ccc(NC(=O)c2nc(S(C)(=O)=O)ncc2Cl)cc1Cl` [AC2P36, 5-chloro-N-(3-chloro-4-methoxyphenyl)-2-methylsulfonylpyrimidine-4-carboxamide], for which the “susceptibility of P. vulgaris to AC2P36” value in the series on Proteus vulgaris was “relatively unaffected”. For the same compound, the “reduction in free thiols in S. aureus” value with S. aureus free thiols is ~ 30%. The “enhanced sensitivity of S. aureus (ΔsodAΔsodM) to AC2P36 compared to WT” value with S. aureus (ΔsodAΔsodM) is given as ~ 2 fold. Besides, in series [2], the “cytoplasmic redox status (roGFP)” value was “leads to a reduced cytoplasm in a dose-dependent and pH-independent manner; also recorded: promotes a reduced cytoplasm in a dose-dependent and pH-independent manner”. Also, the “reduction of viability relative to the DMSO treated control” value with Mtb [3] (20 μM AC2P36, pH 5.7, by 7 days) was ~ 100 fold. Also, the “concentrations at which bactericidal activity is observed” value with Mtb [3] (pH 5.7, 6 days of treatment) was more than 10 µM. The “susceptibility of P. aeruginosa to AC2P36” value in the series with Pseudomonas auruginosa is “relatively unaffected”. Also, the “depletion of free thiols vs DMSO treated samples” value in the series on Mtb free thiol pools (20 μM AC2P36, pH 5.7, 24 hours) is recorded as ~ 16 fold. In addition, the “free thiol concentration after treatment” value in the series on Mtb free thiol pools (20 μM AC2P36, pH 5.7, 24 hours (DMSO ~1.3 μM)) is on record as ~ 80 nM. For the same compound, the “reduction of free thiols” value in the series on Mtb free thiol pools (20 μM AC2P36, pH 7.0, 24 hours) is recorded as “reduced by one third”. Moreover, the “free thiol pools relative to DMSO/untreated control” value in the series on Mtb free thiol pools was “significantly depleted thiol pools at both pH 7.0 and 5.7”. Besides, in the series with Mtb [4], the “selectivity at acidic pH (pH 5.7 vs pH 7.0 EC50)” value was ~ 10 fold. The “concentrations at which Mtb growth is slowed/inhibited at neutral pH” value in the series on Mtb [4] (pH 7.0) was more than 30 μM. The midpoint of cytotoxicity in “in vitro”, the CC50 at 3 days, lay at 17 µM. The “susceptibility of E. faecalis to AC2P36” value in the series on Enterococcus faecalis is on record as “exhibit susceptibility to AC2P36”. The “susceptibility of S. aureus to AC2P36” value in the series on Staphylococcus aureus is listed as “exhibit susceptibility to AC2P36”. In addition, the “ROS accumulation in S. aureus” value with S. aureus is listed as “enhanced ROS accumulation in a dose-dependent manner”. Besides, the “synergy/potentiation in combination with rifampin” value with Mtb [1] (10 μM AC2P36 + 0.3 μM rifampin) was “no significant synergy; also recorded: No potentiation was observed”. For the same compound, the “reduction in bacterial growth relative to the initial inoculum, compound alone” value with Mtb [1] was “approximately 2 fold”. In addition, the “accumulation of intracellular ROS” value in the series with Mtb [5] (2 or 20 μM AC2P36, pH 7.0 and 5.7, 24 hours) was “dose-dependent and pH-dependent accumulation of reactive oxygen species; also recorded: significant induction of ROS”. The synergy with menadione entry in the series on Mtb [6] was “did not synergize”. Besides, the “susceptibility of E. coli to AC2P36” value in the series with Escherichia coli was “relatively unaffected”. For the same compound, in the series with Mtb cytoplasmic pH, the “effect on Mtb cytoplasmic pH” value is “does not modulate Mtb cytoplasmic pH”.
`CC(=O)N[C@@H](CS)C(=O)O` [NAC, N-acetylcysteine]: the “protection of Mtb from 32 μM AC2P36” value with Mtb [7] is “protects Mtb from killing by 32 μM AC2P36 in a dose dependent manner”.
Turning to `CC(=O)OC[C@H]1O[C@@H]([S-])[C@H](OC(C)=O)[C@@H](OC(C)=O)[C@@H]1OC(C)=O.CCP(CC)CC.[Au+]` [auranofin, reference compound], the “reduction in free thiols in S. aureus” value in the series on S. aureus free thiols is ~ 30%. The “free thiol pools relative to DMSO/untreated control” value in the series on Mtb free thiol pools is “depleted free thiols relative to the DMSO treated control”.
As for `O[C@@H](CS)[C@@H](O)CS` (racemic) [DTT, Dithiothreitol, reference compound], in the series with S. aureus, the “ROS accumulation in S. aureus” value is listed as “had no effect on ROS accumulation”.
`CN(C)C(=O)/N=N/C(=O)N(C)C` [diamide, reference compound]: the “enhancement in bacterial growth relative to the initial inoculum, compound alone” value with Mtb [1] (1 mM diamide alone) was 1.8 fold. The “accumulation of intracellular ROS” value is reported as “resists diamide treatment” in the series with Mtb [5] (20 μM diamide, neutral pH) and “significant increase in ROS” with Mtb [5] (20 μM diamide, pH 5.7).

These data come from article PMC5562523 (Cell chemical biology, 2017).
